Experimental data: PMC10692721, “Drug discovery for heart failure targeting myosin-binding protein C” (The Journal of Biological Chemistry, 2023)
*1 amine or outer side, *2 acyl side, *3 side chain or, on linkers, in order; H or OH if unused. Where a SMILES comes first, the peptide text is derived from it. Bridges are numbered along the chain shown (N, C = ends). [ ]: non-standard residue; d: D form. The star is where a group is joined. pTerphenylCO(4''-OnC5H11) = CCCCCOc1ccc(-c2ccc(-c3ccc(C(=O)*)cc3)cc2)cc1; Orn(4R-OH,5R-OH) = O=C([C@H](C[C@@H](O)[C@@H](O)N[*:3])N[*:1])[*:2]; hTyr(3S-OH,4S-OH) = N[C@H](C(=O)O)[C@H](O)[C@@H](O)c1ccc(O)cc1; Pro(3S-OH,4S-Me) = C[C@H]1CN[C@H](C(=O)O)[C@H]1O; Hyp = O=C(O)[C@@H]1C[C@@H](O)CN1

Legend:
TMR-cC0-C2 = test: Selleck library HTS, 532 nm excitation (FLT of TMR-cC0-C2 in presence of FMAL-actin); assay type: binding, human; settings: for effect on FLT of TMR-cC0-C2 in the initial screen (in words): both replicates, actin present; for 532-nm Δτ, Repeat 1 / 532-nm Δτ, Repeat 2: initial screen, 30 μM compound; for 532-nm z-score (based on avg Δτ): robust z-score, hit threshold ±4, 30 μM compound
Description: (§1) Fluorescence lifetime (FLT) measurements were acquired using a high-throughput FLT plate reader (Fluorescence Innovations, Inc) ([14], [27]), provided by Photonic Pharma LLC. […] The observed waveforms were analyzed as described previously ([15], [28]).
(§2) In total, 50 nl of each solution was dispensed in DMSO using an automated Echo 550 acoustic liquid dispenser (Labcyte). Compounds were formatted into the assay plates, at a final concentration of 30 μM, with the first two and second to last columns loaded with DMSO only (compound-free controls). In the final column, 30 μM of suramin was loaded as a positive control (tool compound). These assay plates were then heat-sealed using a PlateLoc Thermal Microplate Sealer (Agilent Technologies) and stored at −20 °C. Before screening, compound plates were equilibrated to room temperature (∼25 °C). […] Plates were incubated at room temperature for 60 min before recording the data with the fluorescence lifetime plate reader.
Hits that exceeded the z-score hit criteria in the donor-only screen were excluded from consideration. To remove compounds with confounding fluorescence properties, a similarity index (SI, specifically the cosine distance, Equation 5) was computed using data from the SUPR instrument by comparing a region (500–540 nm) of the donor-only spectrum (I^(a)) for each well to that of the plate-wide average DMSO spectrum (I^(b)) in the same wavelength band ([29]). Compounds that exceeded an SI robust z-score of 4 were deemed likely fluorescent compounds and removed from consideration.(5) SI=1−∑Ii(a).Ii(b)/∑Ii(a).Ii(a)∑Ii(b).Ii(b)

[1] = test system: TMR-cC0-C2 (C0-C2 fragment of human cMyBP-C); test: FLT-TMR concentration-response assay (FLT of TMR on cC0-C2, no actin); assay type: binding; settings: for effect on FLT of TMR-cC0-C2 (in words): concentration-response, no actin; for cC0-C2/cC0-C2#P (ratio of FLT changes) / cC0-C2 FLT change (% change from DMSO, FLT of TMR-MyBP-C): 60 μM compound
Description: (§3) Compounds identified as initial hits were further examined to determine the concentration–response curves for seven conditions ([1]): FMAL-actin alone identified actin-binding compounds that alter the FLT of FMAL-actin ([2]).
as §1
(§4) The primary hits were dissolved in DMSO to make a 10 mM stock solution, which was serially diluted in 96-well mother plates. Hits were screened at eight concentrations (0.5–100 μM). […] Compounds (1 μl) were transferred from the mother plates into 384-well plates using a Mosquito HV liquid handler (TTP Labtech Ltd, Hertfordshire, UK). The same procedure of dispensing as for the pilot screening was applied in the concentration-response assays. Concentration dependence of the FLT-FRET (E/EDMSO) or FLT-TMR (Δτ) change data was fit to a Hill equation only under certain conditions to help guide the eye (Fig. 4).

[2] = test system: FMAL-actin plus TMR-cC0-C2; test: Selleck library HTS, 473 nm excitation (FLT of FMAL-actin with TMR-cC0-C2, FLT-FRET); assay type: binding, human; settings: for 473-nm Δτ, Repeat 1 / 473-nm Δτ, Repeat 2: initial screen, 30 μM compound; for 473-nm z-score (based on avg Δτ): robust z-score, hit threshold ±4, 30 μM compound
Description: as §1, §2
After fitting the waveforms with a single exponential decay to quantify donor FLT, the change in FLT (Δτ) was computed by performing a moving median subtraction in the order the plate was scanned with a window size of half a plate row […]. The reasons for this are twofold. Firstly, plate gradients are often observed due to the heating of the digitizer during acquisition.
To account for the necessity to correct for plate gradients in the computation of E, the median τDMSO prior to the application of the moving median correction was added to each well’s Δτ value to recover a rescaled value of τ.

[3] = test system: PKA-phosphorylated TMR-cC0-C2 (cC0-C2#P); test: FLT-TMR concentration-response assay, PKA-phosphorylated cC0-C2; assay type: binding, human; settings: 60 μM compound
Description: as §3, §1, §4

[4] = test system: TMR-fC1-C2 (C1-C2 of fast skeletal MyBP-C); test: FLT-TMR concentration-response assay, fC1-C2; assay type: binding; settings: 60 μM compound
Description: as §3, §1, §4

[5] = test system: FMAL-actin/TMR-cC0-C2 interaction; test: FLT-FRET concentration-response assay, FMAL-actin plus TMR-cC0-C2; assay type: binding, human; settings: unphosphorylated cC0-C2
Description: as §3, §1, §4

| effect on FLT-FRET / binding between FMAL-actin and TMR-cC0-C2 (in words) [5] | Compound | effect on FLT of TMR-cC0-C2 in the initial screen (in words) (TMR-cC0-C2) | 532-nm Δτ, Repeat 1 (TMR-cC0-C2) [ns] | 532-nm Δτ, Repeat 2 (TMR-cC0-C2) [ns] | 532-nm z-score (based on avg Δτ) (TMR-cC0-C2) | effect on FLT of TMR-cC0-C2 (in words) [1] | 473-nm Δτ, Repeat 1 [2] [ns] | 473-nm Δτ, Repeat 2 [2] [ns] | 473-nm z-score (based on avg Δτ) [2] | cC0-C2#P FLT change (% change from DMSO, FLT of TMR-MyBP-C) [3] [%] | cC0-C2/fC1-C2 (ratio of FLT changes) [4] | fC1-C2 FLT change (% change from DMSO, FLT of TMR-MyBP-C) [4] [%] | cC0-C2/cC0-C2#P (ratio of FLT changes) [1] | cC0-C2 FLT change (% change from DMSO, FLT of TMR-MyBP-C) [1] [%] |
| --- | --- | --- | --- | --- | --- | --- | --- | --- | --- | --- | --- | --- | --- | --- |
|  | Oc1cccc2cccnc12 [8-Hydroxyquinoline] | strongly reduced | -0.167 | -0.285 | -13.76 | did not | -0.025 | -0.188 | -5.91 |  |  |  |  |  |
|  | CCCCCOc1ccc(-c2ccc(-c3ccc(C(=O)N[C@H]4C[C@@H](O)[C@@H](O)NC(=O)[C@@H]5[C@@H](O)[C@@H](C)CN5C(=O)[C@H]([C@@H](C)O)NC(=O)[C@H]([C@H](O)[C@@H](O)c5ccc(O)cc5)NC(=O)[C@@H]5C[C@@H](O)CN5C(=O)[C@H]([C@@H](C)O)NC4=O)cc3)cc2)cc1 [Anidulafungin] ({pTerphenylCO(4''-OnC5H11)}-[Orn(4R-OH,5R-OH)]T[Hyp][hTyr(3S-OH,4S-OH)]T[Pro(3S-OH,4S-Me)]; lactam 1-C) |  | 0.403 | 0.441 | 25.80 |  | 0.014 | 0.008 | 0.67 | 43.3 | 0.6 | 53.0 | 0.7 | 32.1 |
|  | COc1nc2ccc(Br)cc2cc1[C@@H](c1ccccc1)[C@@](O)(CCN(C)C)c1cccc2ccccc12.O=C(O)/C=C/C(=O)O [Bedaquiline fumarate] |  | -0.009 | -0.105 | -3.45 |  | -0.324 | -0.412 | -20.57 | −6.5 | 0.7 | 6.7 | 0.7 | −4.5 |
|  | CCCCNc1ccc(C(=O)OCCOCCOCCOCCOCCOCCOCCOCCOCCOC)cc1 [Benzonatate] | strongly reduced | -0.101 | -0.124 | -6.82 | did not | 0.108 | -0.001 | 3.05 |  |  |  |  |  |
|  | CCN(CC)CCCC(C)Nc1ccnc2cc(Cl)ccc12 (stereo not drawn) [Chloroquine phosphate] |  | 0.311 | 0.320 | 19.30 |  | -0.042 | -0.069 | -3.07 |  |  | 1.9 |  | 2.5 |
|  | CCCCCCCCCCCCCCCC(=O)O[C@@H]1[C@@H](O)[C@@H](O)[C@@H]([C@H](NC(=O)[C@@H]2C[C@@H](CCC)CN2C)[C@H](C)Cl)O[C@@H]1SC.Cl [Clindamycin palmitate HCl] |  | -0.075 | -0.094 | -5.12 |  | -0.304 | -0.358 | -18.47 |  |  |  |  | −12.7 |
| decrease | Cc1ccc(Nc2c(F)cccc2Cl)c(CC(=O)O)c1 [Lumiracoxib] |  | -0.054 | -0.036 | -2.72 |  | 0.093 | 0.064 | 4.45 |  |  |  |  |  |
|  | CN(C)[C@@H]1C(O)=C(C(N)=O)C(=O)[C@@]2(O)C(O)=C3C(=O)c4c(O)cccc4[C@@](C)(O)[C@H]3[C@H](O)[C@@H]12 [Oxytetracycline (Terramycin), Oxytetracycline] |  | -0.019 | -0.057 | -2.29 |  | 0.175 | 0.122 | 8.34 |  |  |  |  |  |
|  | Nc1ccc2cc3ccc(N)cc3nc2c1 [Proflavine hemisulfate] |  | -0.016 | -0.080 | -2.91 |  | 0.430 | 0.337 | 21.48 |  |  |  |  |  |
|  | C=CC1=C(C)c2cc3[nH]c(cc4nc(cc5[nH]c(cc1n2)c(C)c5CCC(=O)O)C(CCC(=O)O)=C4C)c(C)c3C=C [Protoporphyrin IX] |  | 0.067 | 0.016 | 2.58 |  | 0.144 | 0.076 | 6.21 |  |  |  |  |  |
|  | CN1CCCN=C1/C=C/c1cccs1 [Pyrantel pamoate] |  | -0.043 | -0.100 | -4.32 |  | 0.313 | 0.250 | 15.79 |  |  |  |  |  |
|  | O=C(c1ccc(OCCN2CCCCC2)cc1)c1c(-c2ccc(O)cc2)sc2cc(O)ccc12 [Raloxifene] |  | -0.025 | -0.147 | -5.22 |  | -0.490 | -0.307 | -22.27 |  |  |  |  |  |
|  | CNC(=O)c1cc(Oc2ccc(NC(=O)Nc3ccc(Cl)c(C(F)(F)F)c3)c(F)c2)ccn1 [Regorafenib (BAY 73-4506), Regorafenib] |  | 0.099 | 0.102 | 6.17 |  | -0.029 | -0.026 | -1.50 |  |  |  |  |  |
|  | CONC(=O)Nc1ccc(-c2sc3c(c2CN(C)C)c(=O)n(-c2ccc(OC)nn2)c(=O)n3Cc2c(F)cccc2F)cc1 [Relugolix] |  | -0.169 | -0.015 | -5.58 |  | 0.366 | -0.004 | 10.15 |  |  |  |  |  |
|  | C[n+]1cc2c3c(ccc2c2ccc4cc5c(cc4c21)OCO5)OCO3 [Sanguinarine chloride] |  | -0.160 | -0.020 | -5.46 |  | -0.105 | -0.086 | -5.31 |  |  |  |  |  |
|  | CCOC(=O)[C@@H](N)Cc1ccc(-c2cc(O[C@H](c3ccc(Cl)cc3-n3ccc(C)n3)C(F)(F)F)nc(N)n2)cc1 [Telotristat etiprate (LX 1606 Hippurate), Telotristat etiprate] |  | 0.064 | 0.093 | 4.83 |  | -0.136 | -0.122 | -7.19 |  |  |  |  |  |
|  | COc1ccc(CN(CCN(C)C)c2ncccn2)cc1 [Thonzylamine] |  | -0.034 | -0.382 | -12.66 |  | 0.012 | -0.449 | -12.17 |  |  |  |  |  |
|  | Heparin sodium |  | -0.052 | -0.051 | -3.09 |  | 0.440 | 0.363 | 22.49 |  |  |  |  |  |
